The target in one experiment is human PI3Kα (Homo sapiens (Human), UniProt P42336). The experiment is described as follows: Human PI3Kα activity test (luciferin/luciferase ATP consumption, KinaseGlo). The experiment is classed as biochemical.
The test system of experiment [1] is Plasmodium falciparum (strain NF54). Briefly: Antimalarial activity test: growth of Plasmodium falciparum in infected human erythrocytes, 3H-hypoxanthine incorporation. The following applies: strain NF54 sensitive to chloroquine, 72 h total incubation. The experiment is classed as cell-based. The essentials: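 Chloroquine-sensitive NF54 parasites in human erythrocytes (1.25% hematocrit, 0.15% parasitemia) were grown in hypoxanthine-free RPMI 1640 with HEPES and Albumax II, with compound in twofold serial dilution, at 37 °C under 93% N2/4% CO2/3% O2. After 48 h, 3H-hypoxanthine (0.5 μCi) was added for 24 h. Scintillation counts versus drug-free control gave IC50.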

Setting [2] is: PI3Kα (p110α/p85α), 50 μM PIP2, 2 μM ATP, 90 minutes, read-out: IC50 Human PI3Kα.
[3] abbreviates: Plasmodium falciparum, Erythrocyte.

Read-outs that look alike come from different tables or passages of the source. A value given as a limit tells only on which side of the number the result lay.

human PI3Kα, sequence (P42336 whole entry): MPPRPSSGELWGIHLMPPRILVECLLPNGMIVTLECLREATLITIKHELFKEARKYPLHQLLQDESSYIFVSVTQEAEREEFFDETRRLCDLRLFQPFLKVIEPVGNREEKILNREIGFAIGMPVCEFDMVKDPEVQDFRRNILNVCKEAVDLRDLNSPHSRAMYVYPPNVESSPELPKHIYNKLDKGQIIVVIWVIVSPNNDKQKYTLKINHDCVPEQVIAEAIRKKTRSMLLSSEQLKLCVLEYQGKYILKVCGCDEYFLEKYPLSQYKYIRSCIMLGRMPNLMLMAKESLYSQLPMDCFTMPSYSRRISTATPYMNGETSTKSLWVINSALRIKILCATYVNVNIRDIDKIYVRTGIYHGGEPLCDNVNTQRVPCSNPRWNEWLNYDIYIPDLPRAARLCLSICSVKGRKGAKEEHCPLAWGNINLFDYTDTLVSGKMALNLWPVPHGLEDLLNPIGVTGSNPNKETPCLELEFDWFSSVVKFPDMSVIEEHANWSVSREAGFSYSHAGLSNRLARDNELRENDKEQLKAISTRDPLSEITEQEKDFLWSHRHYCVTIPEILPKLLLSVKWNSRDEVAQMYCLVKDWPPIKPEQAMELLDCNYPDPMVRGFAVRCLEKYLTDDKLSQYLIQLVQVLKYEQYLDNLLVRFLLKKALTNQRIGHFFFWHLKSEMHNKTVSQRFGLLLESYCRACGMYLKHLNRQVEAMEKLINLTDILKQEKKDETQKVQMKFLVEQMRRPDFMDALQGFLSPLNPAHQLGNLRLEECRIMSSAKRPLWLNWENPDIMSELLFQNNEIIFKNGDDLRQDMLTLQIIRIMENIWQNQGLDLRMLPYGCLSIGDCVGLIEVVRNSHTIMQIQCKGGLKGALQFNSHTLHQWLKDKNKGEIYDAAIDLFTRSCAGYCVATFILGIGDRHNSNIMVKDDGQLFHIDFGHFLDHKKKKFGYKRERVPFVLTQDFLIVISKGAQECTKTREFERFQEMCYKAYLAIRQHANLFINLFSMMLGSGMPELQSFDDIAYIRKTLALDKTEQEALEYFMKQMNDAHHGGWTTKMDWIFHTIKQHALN
human PI3Kα, sequence (P27986 whole entry partner): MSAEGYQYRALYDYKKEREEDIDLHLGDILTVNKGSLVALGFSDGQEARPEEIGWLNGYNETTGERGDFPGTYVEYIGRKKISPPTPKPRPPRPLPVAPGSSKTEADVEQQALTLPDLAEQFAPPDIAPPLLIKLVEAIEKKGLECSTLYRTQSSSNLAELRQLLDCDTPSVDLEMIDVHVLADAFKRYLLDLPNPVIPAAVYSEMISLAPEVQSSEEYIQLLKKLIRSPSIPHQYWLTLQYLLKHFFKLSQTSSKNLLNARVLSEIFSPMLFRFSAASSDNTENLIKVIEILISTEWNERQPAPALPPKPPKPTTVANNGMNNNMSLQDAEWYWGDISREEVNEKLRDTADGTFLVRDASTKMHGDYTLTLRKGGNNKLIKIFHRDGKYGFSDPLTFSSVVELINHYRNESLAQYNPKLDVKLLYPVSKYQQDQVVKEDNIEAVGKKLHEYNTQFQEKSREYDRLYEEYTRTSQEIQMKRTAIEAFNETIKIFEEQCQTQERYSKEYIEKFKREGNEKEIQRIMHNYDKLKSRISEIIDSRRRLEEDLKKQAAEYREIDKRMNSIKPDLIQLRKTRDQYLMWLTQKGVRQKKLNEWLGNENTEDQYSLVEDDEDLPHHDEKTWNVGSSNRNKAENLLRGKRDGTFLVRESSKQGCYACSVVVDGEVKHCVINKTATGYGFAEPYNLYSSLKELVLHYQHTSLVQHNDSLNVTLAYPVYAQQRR
Experimental for human PI3Kα: The test uses a luciferin/luciferase system to measure the concentration of ATP and its consumption during the enzymatic reaction.
After 90 minutes, the reaction is quenched by adding 20 μl/well of KinaseGlo reagent (Promega V6713). After 10 minutes in the dark, the luminescence is read using a PHERAStar microplate reader (reading at 0.8 sec/well).

`COc1ccc(CCN2c3nc(N4CC5CCC(C4)O5)cc(=O)n3C[C@@]2(C)C(F)(F)F)cc1` [Compound 76, (S)-1-[2-(4-Methoxyphenyl)ethyl]-2-methyl-7-(8-oxa-3-azabicyclo[3.2.1]oct-3-yl)-2-trifluoromethyl-2,3-dihydro-1H-imidazo[1,2-a]pyrimidin-5-one]: the results for the IC50 (at human PI3Kα (setting [2]); in experiment [1] (setting [3])) were 0.95 µM and 0.093 µM, respectively.
Consider `C[C@@]1(C(F)(F)F)Cn2c(nc(N3CC4CCC(C3)O4)cc2=O)N1CCCc1ccccc1` [Compound 77, (S)-2-Methyl-7-(8-oxa-3-azabicyclo[3.2.1]oct-3-yl)-1-(3-phenylpropyl)-2-trifluoromethyl-2,3-dihydro-1H-imidazo[1,2-a]pyrimidin-5-one], for which the IC50 at human PI3Kα (setting [2]) was 0.82 µM; in experiment [1] (setting [3]), 0.16 µM.
As to `CN(C)CCCOc1ccc(CCN2c3nc(N4CC5CCC(C4)O5)cc(=O)n3C[C@@]2(C)C(F)(F)F)cc1` [Compound 78, (S)-1-{2-[4-(3-Dimethylaminopropoxyl)phenyl]ethyl}-2-methyl-7-(8-oxa-3-azabicyclo[3.2.1]oct-3-yl)-2-trifluoromethyl-2,3-dihydro-1H-imidazo[1,2-a]pyrimidin-5-one], the half-inhibitory concentration (IC50) came to 0.25 µM at human PI3Kα (setting [2]) and 0.36 µM in experiment [1] (setting [3]).
Take `C[C@@]1(C(F)(F)F)Cn2c(nc(N3CC4CCC(C3)O4)cc2=O)N1C[C@@H](O)c1ccccc1` [Compound 79, (2S)-1-((S)-2-Hydroxy-2-phenylethyl)-2-methyl-7-(8-oxa-3-azabicyclo[3.2.1]oct-3-yl)-2-trifluoromethyl-2,3-dihydro-1H-imidazo[1,2-a]pyrimidin-5-one]: the IC50 on human PI3Kα (setting [2]) is 1.6 µM; in experiment [1] (setting [3]) it was 0.64 µM.
Regarding `O=c1cc(N2CC3CCC(C2)O3)nc2n1CC[C@@H](C(F)(F)F)N2C[C@@H](O)c1cc2ccccc2s1` [Compound 82, (8S)-9-((R)-2-Benzo[b]thiophen-2-yl-2-hydroxyethyl)-2-(8-oxa-3-azabicyclo[3.2.1]oct-3-yl)-8-trifluoromethyl-6,7,8,9-tetrahydropyrimido[1,2-a]pyrimidin-4-one], the IC50 amounted to 0.34 µM on human PI3Kα (setting [2]) and 0.009 µM in experiment [1] (setting [3]).
The corresponding values for `O=c1cc(N2CC3CCC(C2)O3)nc2n1CC[C@@H](C(F)(F)F)N2CCc1ccc(O)cc1` [Compound 83, (8S)-9-[2-(4-Hydroxyphenyl)ethyl]-2-(8-oxa-3-azabicyclo[3.2.1]oct-3-yl)-8-trifluoromethyl-6,7,8,9-tetrahydropyrimido[1,2-a]pyrimidin-4-one] are 0.19 µM and 0.01 µM.
Consider `O=c1cc(N2CC3CCC(C2)O3)nc2n1CC[C@@H](C(F)(F)F)N2CCCc1ccccc1` [Compound 84, (8S)-2-(8-oxa-3-azabicyclo[3.2.1]oct-3-yl)-9-(3-phenylpropyl)-8-trifluoromethyl-6,7,8,9-tetrahydropyrimido[1,2-a]pyrimidin-4-one], for which the values for the IC50 (on human PI3Kα (setting [2]); in experiment [1] (setting [3])) were 0.2 µM and 0.11 µM, respectively.
Turning to `O=C(CN1c2nc(N3C4CCC3COC4)cc(=O)n2CC[C@H]1C(F)(F)F)c1cccnc1` [Compound 85, (8S)-2-(3-Oxa-8-azabicyclo[3.2.1]oct-8-yl)-9-(2-oxo-2-pyrid-3-ylethyl)-8-trifluoromethyl-6,7,8,9-tetrahydropyrimido[1,2-a]pyrimidin-4-one], the results for the IC50 (against human PI3Kα; in experiment [1] (setting [3])) were above 10 µM and 0.15 µM, respectively.
Consider `O=c1cc(N2CC3CCC(C2)O3)nc2n1CC[C@@H](C(F)(F)F)N2Cc1ccn(C(F)F)n1` [Compound 86, (8S)-9-(1-Difluoromethyl-1H-pyrazol-3-ylmethyl)-2-(8-oxa-3-azabicyclo[3.2.1]oct-3-yl)-8-trifluoromethyl-6,7,8,9-tetrahydropyrimido[1,2-a]pyrimidin-4-one], for which the IC50 on human PI3Kα (setting [2]) came to 7.3 µM; in experiment [1] (setting [3]) it was 0.17 µM.
For the compound `O=C(CN1c2nc(N3CC4CCC(C3)O4)cc(=O)n2CC[C@H]1C(F)(F)F)c1ccccn1` [Compound 88, (8S)-2-(8-Oxa-3-azabicyclo[3.2.1]oct-3-yl)-9-(2-oxo-2-pyrid-2-ylethyl)-8-trifluoromethyl-6,7,8,9-tetrahydropyrimido[1,2-a]pyrimidin-4-one], the half-inhibitory concentration (IC50) on human PI3Kα (setting [2]) amounted to 1.3 µM; in experiment [1] (setting [3]), 0.14 µM.
The matching figures for `CC(=O)N1CCC(CCN2c3nc(N4C[C@@H]5C[C@H]4CO5)cc(=O)n3CC[C@H]2C(F)(F)F)CC1` [Compound 89, (S)-9-[2-(1-Acetylpiperid-4-yl)ethyl]-2-(1S,4S)-2-oxa-5-azabicyclo[2.2.1]hept-5-yl-8-trifluoromethyl-6,7,8,9-tetrahydropyrimido[1,2-a]pyrimidin-4-one]: 2.8 µM and 0.0034 µM.
Turning to `O=CN1CCC(CCN2c3nc(N4C[C@@H]5C[C@H]4CO5)cc(=O)n3CC[C@H]2C(F)(F)F)CC1` [Compound 90, 4-[2-((2S)-8-(1S,4S)-2-oxa-5-azabicyclo[2.2.1]hept-5-yl-6-oxo-2-trifluoromethyl-3,4-dihydro-2H,6H-pyrimido[1,2-a]pyrimidin-1-yl)ethyl]piperidine-1-carbaldehyde], the IC50 stood at 2.4 µM on human PI3Kα (setting [2]) and 0.002 µM in experiment [1] (setting [3]).
As to `CCOC(=O)N1CCC(C(=O)CN2c3nc(N4C[C@@H]5C[C@H]4CO5)cc(=O)n3CC[C@H]2C(F)(F)F)CC1` [Compound 91, 4-[2-((S)-8-(1S,4S)-2-Oxa-5-azabicyclo[2.2.1]hept-5-yl-6-oxo-2-trifluoromethyl-3,4-dihydro-2H,6H-pyrimido[1,2-a]pyrimidin-1-yl)acetyl]piperidine-1-carboxylic acid ethyl ester], the half-inhibitory concentration (IC50) on human PI3Kα (setting [2]) was above 10 µM; in experiment [1] it was 0.025 µM.
`O=c1cc(N2C[C@@H]3C[C@H]2CO3)nc2n1CC[C@@H](C(F)(F)F)N2CCC1CCOCC1` [Compound 92, (8S)-2-(1S,4S)-2-oxa-5-azabicyclo[2.2.1]hept-5-yl-9-[2-(tetrahydropyran-4-yl)ethyl]-8-trifluoromethyl-6,7,8,9-tetrahydropyrimido[1,2-a]pyrimidin-4-one]: the IC50 at human PI3Kα (setting [2]) came out at 0.45 µM; in experiment [1] (setting [3]), 0.004 µM.
The corresponding values for `O=c1cc(N2C[C@@H]3C[C@H]2CO3)nc2n1CC[C@@H](C(F)(F)F)N2CC1CCOCC1` [Compound 93, (8S)-2-(1S,4S)-2-oxa-5-azabicyclo[2.2.1]hept-5-yl-9-(tetrahydropyran-4-ylmethyl)-8-trifluoromethyl-6,7,8,9-tetrahydropyrimido[1,2-a]pyrimidin-4-one] are 0.78 µM and 0.004 µM.
Regarding `CC(=O)N1CCC(CN2c3nc(N4C[C@@H]5C[C@H]4CO5)cc(=O)n3CC[C@H]2C(F)(F)F)CC1` [Compound 94, (8S)-9-(1-Acetylpiperid-4-ylmethyl)-2-(1S,4S)-2-oxa-5-azabicyclo[2.2.1]hept-5-yl-8-trifluoromethyl-6,7,8,9-tetrahydropyrimido[1,2-a]pyrimidin-4-one], the IC50 at human PI3Kα (setting [2]) came to 0.13 µM; in experiment [1] (setting [3]), 0.009 µM.
The corresponding values for `O=CN1CCC(CN2c3nc(N4C[C@@H]5C[C@H]4CO5)cc(=O)n3CC[C@H]2C(F)(F)F)CC1` [Compound 95, 4-((2S)-8-(1S,4S)-2-oxa-5-azabicyclo[2.2.1]hept-5-yl-6-oxo-2-trifluoromethyl-3,4-dihydro-2H,6H-pyrimido[1,2-a]pyrimidin-1-ylmethyl)piperidine-1-carbaldehyde] are 0.18 µM and 0.007 µM.
As for `O=c1cc(N2C[C@@H]3C[C@H]2CO3)nc2n1CC[C@@H](C(F)(F)F)N2CC(O)(C(F)(F)F)C(F)(F)F` [Compound 96, (8S)-2-(1S,4S)-2-oxa-5-azabicyclo[2.2.1]hept-5-yl-9-(3,3,3-trifluoro-2-hydroxy-2-trifluoromethylpropyl)-8-trifluoromethyl-6,7,8,9-tetrahydropyrimido[1,2-a]pyrimidin-4-one], the IC50 was 8.5 µM on human PI3Kα (setting [2]) and 0.17 µM in experiment [1] (setting [3]).
For the compound `O=c1cc(N2C[C@@H]3C[C@H]2CO3)nc2n1CC[C@@H](C(F)(F)F)N2CCC(O)(C(F)(F)F)C(F)(F)F` [Compound 97, (8S)-2-(1S,4S)-2-Oxa-5-azabicyclo[2.2.1]hept-5-yl-9-(4,4,4-trifluoro-3-hydroxy-3-trifluoromethylbutyl)-8-trifluoromethyl-6,7,8,9-tetrahydropyrimido[1,2-a]pyrimidin-4-one], the values for the IC50 (at human PI3Kα (setting [2]); in experiment [1]) were 0.44 µM and 0.03 µM, respectively.
The matching figures for `O=C(CN1c2nc(N3C[C@@H]4C[C@H]3CO4)cc(=O)n2CC[C@H]1C(F)(F)F)N1CC2CCC(C1)O2` [Compound 98, (8S)-2-(1S,4S)-2-Oxa-5-azabicyclo[2.2.1]hept-5-yl-9-[2-(8-oxa-3-azabicyclo[3.2.1]oct-3-yl)-2-oxoethyl]-8-trifluoromethyl-6,7,8,9-tetrahydropyrimido[1,2-a]pyrimidin-4-one]: above 10 µM and 0.14 µM.
In the case of `O=C(CN1c2nc(N3C[C@@H]4C[C@H]3CO4)cc(=O)n2CC[C@H]1C(F)(F)F)N1C2CCC1COC2` [Compound 99, (8S)-2-(1S,4S)-2-oxa-5-azabicyclo[2.2.1]hept-5-yl-9-[2-(3-oxa-8-azabicyclo[3.2.1]oct-8-yl)-2-oxoethyl]-8-trifluoromethyl-6,7,8,9-tetrahydropyrimido[1,2-a]pyrimidin-4-one], the IC50 against human PI3Kα was above 10 µM; in experiment [1] (setting [3]), 0.17 µM.
In the case of `O=c1cc(N2C[C@@H]3C[C@H]2CO3)nc2n1CC[C@@H](C(F)(F)F)N2CCC1(O)CCCC1` [Compound 100, (8S)-9-[2-(1-Hydroxycyclopentyl)ethyl]-2-(1S,4S)-2-oxa-5-azabicyclo[2.2.1]hept-5-yl-8-trifluoromethyl-6,7,8,9-tetrahydropyrimido[1,2-a]pyrimidin-4-one], the results for the IC50 (at human PI3Kα (setting [2]); in experiment [1] (setting [3])) were 1.98 µM and 0.009 µM, respectively.

These data come from patent publication US9321790B2, “Pyrimidinone derivatives as antimalarial agents” (SANOFI, priority 2012, dated 2016).
